Numbering of substitutions follows the chain as printed. Where a SMILES comes first, the peptide text is derived from it. Bridges are numbered along the chain shown (N, C = ends).
Assays:
Experiment in all cases: cAMP accumulation
Format in all cases: cell-based
[1] = biological target: T1, hCTR S364A (Homo sapiens, UniProt P30988, S364A); settings: mean ± S.E.M.; for Emax: cAMP maximal response, SEM; for EC50: cAMP, CV1-FlpIn cells, 30 min, IBMX
T1 construct: c-Myc (N); expressed in transfected cells
T1 sequence (P30988 25-474 S364A): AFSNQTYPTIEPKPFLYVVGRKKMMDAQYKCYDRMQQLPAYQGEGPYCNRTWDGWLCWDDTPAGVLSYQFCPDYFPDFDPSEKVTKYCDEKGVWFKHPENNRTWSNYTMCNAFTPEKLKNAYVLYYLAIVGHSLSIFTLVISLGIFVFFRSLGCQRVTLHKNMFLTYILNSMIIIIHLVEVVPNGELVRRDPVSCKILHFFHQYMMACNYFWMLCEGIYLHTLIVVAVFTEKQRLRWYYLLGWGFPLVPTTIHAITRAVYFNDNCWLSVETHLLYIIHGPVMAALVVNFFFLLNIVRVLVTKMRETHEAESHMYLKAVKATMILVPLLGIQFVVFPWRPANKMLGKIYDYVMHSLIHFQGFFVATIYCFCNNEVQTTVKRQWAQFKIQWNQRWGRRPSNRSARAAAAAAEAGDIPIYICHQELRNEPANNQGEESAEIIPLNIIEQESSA
Description: (§1) Cells (2.5 × 10^4 cells/well) were seeded into 96-well plates and incubated overnight. Cells were stimulated with increasing concentrations of ligands for 30 min in the presence of IBMX. The liquid was discarded, changed to absolute ethanol and volatilized to dryness at room temperature. […] Data were normalized to the response of 100 μM forskolin.
(§2) Data were corrected for radioligand occupancy using the Cheng-Prusoff equation in Prism; as such data are reported as pKi. Emax and EC50 were estimated from concentration-response curves using with a 3-parameter logistic equation in Prism (v7). These values are a composite of functional affinity, efficacy and stimulus response coupling. […] Significance was accepted at P < 0.05.

[2] = biological target: T2, hCTR L298A (Homo sapiens, UniProt P30988, L298A); settings: mean ± S.E.M.; for Emax: cAMP maximal response, SEM; for EC50: cAMP, CV1-FlpIn cells, 30 min, IBMX
T2 construct: c-Myc (N); expressed in transfected cells
T2 sequence (P30988 25-474 L298A): T1 sequence (P30988 25-474 S364A) with L274A, A340S
Description: as §1, §2

[3] = biological target: T3, hCTR S292A (Homo sapiens, UniProt P30988, S292A); settings: mean ± S.E.M.; for Emax: cAMP maximal response, SEM; for EC50: cAMP, CV1-FlpIn cells, 30 min, IBMX
T3 construct: expressed in transfected cells
T3 sequence (P30988 25-474 S292A): T1 sequence (P30988 25-474 S364A) with S268A, A340S
Description: as §1, §2

[4] = biological target: T4, hCTR V357A (Homo sapiens, UniProt P30988, V357A); settings: mean ± S.E.M.; for Emax: cAMP maximal response, SEM; for EC50: cAMP, CV1-FlpIn cells, 30 min, IBMX
T4 construct: c-Myc (N); expressed in transfected cells
T4 sequence (P30988 25-474 V357A): T1 sequence (P30988 25-474 S364A) with V333A, A340S
Description: as §1, §2

[5] = biological target: T5, hCTR W290A (Homo sapiens, UniProt P30988, W290A); settings: mean ± S.E.M.; for Emax: cAMP maximal response, SEM
T5 construct: c-Myc (N); expressed in transfected cells
T5 sequence (P30988 25-474 W290A): T1 sequence (P30988 25-474 S364A) with W266A, A340S
Description: as §1, §2

Row | EC50 [1] | EC50 [2] | EC50 [3] | EC50 [4] | EC50 ([5]; cAMP, CV1-FlpIn cells, 30 min, IBMX) | Compound | Emax [1] | Emax [2] | Emax [3] | Emax [4] | Emax [5]
1 | 16.6 nM | 33.9 nM | 22.4 nM | 29.5 nM | – | CC(C)C[C@H](NC(=O)CNC(=O)[C@H](C)NC(=O)[C@H](CC(C)C)NC(=O)[C@H](CCCNC(=N)N)NC(=O)[C@H](Cc1cnc[nH]1)NC(=O)[C@@H](NC(=O)[C@@H](NC(=O)[C@@H]1CSSC[C@H](NC(=O)[C@H](C)N)C(=O)N[C@@H](CC(=O)O)C(=O)N[C@@H]([C@@H](C)O)C(=O)N[C@@H](C)C(=O)N[C@@H]([C@@H](C)O)C(=O)N1)C(C)C)[C@@H](C)O)C(=O)N[C@@H](CC(C)C)C(=O)N[C@@H](CO)C(=O)N[C@@H](CCCNC(=N)N)C(=O)N[C@@H](CO)C(=O)NCC(=O)NCC(=O)N[C@H](C(=O)N[C@H](C(=O)N[C@@H](CCCCN)C(=O)N[C@@H](CC(N)=O)C(=O)N[C@@H](CC(N)=O)C(=O)N[C@@H](Cc1ccccc1)C(=O)N[C@H](C(=O)N1CCC[C@H]1C(=O)N[C@H](C(=O)N[C@@H](CC(N)=O)C(=O)N[C@H](C(=O)NCC(=O)N[C@@H](CO)C(=O)N[C@@H](CCCCN)C(=O)N[C@@H](C)C(=O)N[C@@H](Cc1ccccc1)C(N)=O)C(C)C)[C@@H](C)O)C(C)C)C(C)C)C(C)C [hαCGRP] | 83 ± 10% | 109 ± 17% | 106 ± 14% | 82 ± 10% | –
2 | 0.603 nM | 0.0631 nM | 0.0316 nM | 0.151 nM | 3.31 nM | CSCC[C@H](NC(=O)CNC(=O)[C@H](CO)NC(=O)[C@H](Cc1ccccc1)NC(=O)[C@H](CCCNC(=N)N)NC(=O)[C@H](Cc1c[nH]cn1)NC(=O)[C@H](Cc1ccccc1)NC(=O)[C@H](CC(N)=O)NC(=O)[C@H](CC(N)=O)NC(=O)[C@H](CC(C)C)NC(=O)[C@H](CC(N)=O)NC(=O)[C@H](CCCNC(=N)N)NC(=O)[C@H](Cc1c[nH]c2ccccc12)NC(=O)[C@H](Cc1ccc(O)cc1)NC(=O)[C@H](C)NC(=O)[C@H](CO)NC(=O)[C@H](CC(C)C)NC(=O)[C@@H](NC(=O)[C@@H]1CSSC[C@H](N)C(=O)N[C@@H](CO)C(=O)N[C@@H](CC(N)=O)C(=O)N[C@@H](CC(C)C)C(=O)N[C@@H](CO)C(=O)N[C@@H]([C@@H](C)O)C(=O)N1)C(C)C)C(=O)NCC(=O)N[C@@H](Cc1ccccc1)C(=O)NCC(=O)N1CCC[C@H]1C(=O)N[C@@H](CCC(=O)O)C(=O)N[C@H](C(=O)N1CCC[C@H]1C(N)=O)[C@@H](C)O [pCT] (H-CSNLSTCVLSAYWRNLNNFHRFSGMGFGPETP-NH2; disulfide 1-7) | 166 ± 16% | 118 ± 7% | 131 ± 9% | 154 ± 17% | 113 ± 12%
3 | – | – | – | – | – | CC(C)C[C@H](NC(=O)[C@H](CCCCN)NC(=O)CNC(=O)[C@H](CC(C)C)NC(=O)[C@@H](NC(=O)[C@@H]1CSSC[C@H](N)C(=O)N[C@@H](CO)C(=O)N[C@@H](CC(N)=O)C(=O)N[C@@H](CC(C)C)C(=O)N[C@@H](CO)C(=O)N[C@@H]([C@@H](C)O)C(=O)N1)C(C)C)C(=O)N[C@@H](CO)C(=O)N[C@@H](CCC(N)=O)C(=O)N[C@@H](CCC(=O)O)C(=O)N[C@@H](CC(C)C)C(=O)N[C@@H](Cc1c[nH]cn1)C(=O)N[C@@H](CCCCN)C(=O)N[C@@H](CC(C)C)C(=O)N[C@@H](CCC(N)=O)C(=O)N[C@H](C(=O)N[C@@H](Cc1ccc(O)cc1)C(=O)N1CCC[C@H]1C(=O)N[C@@H](CCCNC(=N)N)C(=O)N[C@H](C(=O)N[C@@H](CC(N)=O)C(=O)N[C@H](C(=O)NCC(=O)N[C@@H](CO)C(=O)NCC(=O)N[C@H](C(=O)N1CCC[C@H]1C(N)=O)[C@@H](C)O)[C@@H](C)O)[C@@H](C)O)[C@@H](C)O [sCT] | 102 ± 7% | 112 ± 9% | 119 ± 12% | 133 ± 12% | 154 ± 7%
4 | – | – | – | – | – | CC[C@H](C)[C@H](NC(=O)[C@H](C)NC(=O)[C@@H](NC(=O)[C@H](CCC(N)=O)NC(=O)[C@@H]1CCCN1C(=O)[C@H](Cc1ccccc1)NC(=O)[C@@H](NC(=O)[C@H](Cc1c[nH]cn1)NC(=O)[C@H](Cc1ccccc1)NC(=O)[C@H](CCCCN)NC(=O)[C@H](CC(N)=O)NC(=O)[C@H](Cc1ccccc1)NC(=O)[C@H](CC(=O)O)NC(=O)[C@H](CCC(N)=O)NC(=O)[C@@H](NC(=O)[C@H](Cc1ccc(O)cc1)NC(=O)[C@@H](NC(=O)CNC(=O)[C@H](CC(C)C)NC(=O)[C@H](CCSC)NC(=O)[C@@H]1CSSC[C@H](N)C(=O)NCC(=O)N[C@@H](CC(N)=O)C(=O)N[C@@H](CC(C)C)C(=O)N[C@@H](CO)C(=O)N[C@@H]([C@@H](C)O)C(=O)N1)[C@@H](C)O)[C@@H](C)O)[C@@H](C)O)[C@@H](C)O)C(=O)NCC(=O)N[C@H](C(=O)NCC(=O)N[C@@H](C)C(=O)N1CCC[C@H]1C(N)=O)C(C)C [hCT] | 97 ± 9% | 103 ± 6% | 135 ± 13% | 137 ± 6% | 164 ± 20%
5 | – | – | – | – | – | CC(C)C[C@H](NC(=O)[C@H](CC(N)=O)NC(=O)[C@H](CC(N)=O)NC(=O)[C@H](CO)NC(=O)[C@H](CO)NC(=O)[C@H](CCCNC(=N)N)NC(=O)[C@@H](NC(=O)[C@H](CC(C)C)NC(=O)[C@H](Cc1ccccc1)NC(=O)[C@H](CC(N)=O)NC(=O)[C@H](C)NC(=O)[C@H](CC(C)C)NC(=O)[C@H](CCCNC(=N)N)NC(=O)[C@H](CCC(N)=O)NC(=O)[C@@H](NC(=O)[C@H](C)NC(=O)[C@@H]1CSSC[C@H](NC(=O)[C@@H](N)CCCCN)C(=O)N[C@@H](CC(N)=O)C(=O)N[C@@H]([C@@H](C)O)C(=O)N[C@@H](C)C(=O)N[C@@H]([C@@H](C)O)C(=O)N1)[C@@H](C)O)C(C)C)C(=O)NCC(=O)N1CCC[C@H]1C(=O)N[C@H](C(=O)N[C@@H](CC(C)C)C(=O)N1CCC[C@H]1C(=O)N1CCC[C@H]1C(=O)N[C@H](C(=O)N[C@@H](CC(N)=O)C(=O)N[C@H](C(=O)NCC(=O)N[C@@H](CO)C(=O)N[C@@H](CC(N)=O)C(=O)N[C@H](C(=O)N[C@@H](Cc1ccc(O)cc1)C(N)=O)[C@@H](C)O)C(C)C)[C@@H](C)O)C(C)C [rAmy] | 56 ± 7% | 117 ± 13% | 95 ± 10% | 88 ± 10% | 72 ± 26%

— paper PMC5908784, “Extracellular loops 2 and 3 of the calcitonin receptor selectively modify agonist binding and efficacy” (Biochemical Pharmacology, 2018)
